From PubChem BioAssay AID2060495 (Molecular Pharmacology Branch, DTP, NCI, 2025)
Each block holds one molecule with its values, some of them ahead of it.

System: 521955-158-R2-J5-PDC complex spheroid viability
Assay: Anticancer human tumor 521955-158-R2-J5-PDC patient-derived pancreatic carcinoma cell line growth inhibition [GQUAD]
Conditions: for IC50: curve of first compound; for viability, T/C: stronger effect = lower value
In short: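 Multi-cell-type spheroids of tumor cells with HUVEC and mesenchymal stem cells, treated with drug combinations. Concentrations descend in half-log steps from near clinical Cmax, or from 10 microM where Cmax is unknown; viability read-out.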

[1] = second compound 0.0316 µM, first compound 0.0316 µM
[2] = second compound 0.0316 µM, first compound 0.1 µM
[3] = second compound 0.0316 µM, first compound 0.316 µM
[4] = second compound 0.0316 µM, first compound 1 µM
[5] = second compound 0.0316 µM, first compound 3.16 µM
[6] = second compound 0.0316 µM, first compound 10 µM
[7] = second compound 0.1 µM, first compound 0.0316 µM
[8] = second compound 0.1 µM, first compound 0.1 µM
[9] = second compound 0.1 µM, first compound 0.316 µM
[10] = second compound 0.1 µM, first compound 1 µM
[11] = second compound 0.1 µM, first compound 3.16 µM
[12] = second compound 0.1 µM, first compound 10 µM
[13] = second compound 0.316 µM, first compound 0.0316 µM
[14] = second compound 0.316 µM, first compound 0.1 µM
[15] = second compound 0.316 µM, first compound 0.316 µM
[16] = second compound 0.316 µM, first compound 1 µM
[17] = second compound 0.316 µM, first compound 3.16 µM
[18] = second compound 0.316 µM, first compound 10 µM
[19] = second compound 1 µM, first compound 0.0316 µM
[20] = second compound 1 µM, first compound 0.1 µM
[21] = second compound 1 µM, first compound 0.316 µM
[22] = second compound 1 µM, first compound 1 µM
[23] = second compound 1 µM, first compound 3.16 µM
[24] = second compound 1 µM, first compound 10 µM
[25] = second compound 3.16 µM, first compound 0.0316 µM
[26] = second compound 3.16 µM, first compound 0.1 µM
[27] = second compound 3.16 µM, first compound 0.316 µM
[28] = second compound 3.16 µM, first compound 1 µM
[29] = second compound 3.16 µM, first compound 3.16 µM
[30] = second compound 3.16 µM, first compound 10 µM
[31] = second compound 10 µM, first compound 0.0316 µM
[32] = second compound 10 µM, first compound 0.1 µM
[33] = second compound 10 µM, first compound 0.316 µM
[34] = second compound 10 µM, first compound 1 µM
[35] = second compound 10 µM, first compound 3.16 µM
[36] = second compound 10 µM, first compound 10 µM
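Also: spheroids exposed to agents for one week before reading.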
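For viability, T/C in this document: 100% = DMSO vehicle control viability.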

Structure (SMILES): COc1ncnc(C2CC2)c1-c1ncc2cnn(Cc3ccc(-c4nc(C(F)(F)F)cn4C(C)C)cc3)c2n1 + Cc1[nH]c2ccc(F)cc2c1-c1nc2c3cccnc3c3ncccc3c2[nH]1
IC50 (second compound 0.0316 µM): > 10000 nM | IC50 (second compound 0.1 µM): > 10000 nM | IC50 (second compound 0.316 µM): > 10000 nM | IC50 (second compound 1 µM): > 10000 nM | IC50 (second compound 3.16 µM): > 10000 nM | IC50 (second compound 10 µM): > 10000 nM | viability, T/C [1]: 94% | viability, T/C [2]: 103% | viability, T/C [3]: 107% | viability, T/C [4]: 111% | viability, T/C [5]: 100% | viability, T/C [6]: 143% | viability, T/C [7]: 101% | viability, T/C [8]: 99.2% | viability, T/C [9]: 105% | viability, T/C [10]: 126% | viability, T/C [11]: 104% | viability, T/C [12]: 121% | viability, T/C [13]: 109% | viability, T/C [14]: 97.5% | viability, T/C [15]: 125% | viability, T/C [16]: 112% | viability, T/C [17]: 116% | viability, T/C [18]: 126% | viability, T/C [19]: 97.8% | viability, T/C [20]: 91.9% | viability, T/C [21]: 102% | viability, T/C [22]: 112% | viability, T/C [23]: 133% | viability, T/C [24]: 119% | viability, T/C [25]: 87.7% | viability, T/C [26]: 90.1% | viability, T/C [27]: 98.1% | viability, T/C [28]: 111% | viability, T/C [29]: 125% | viability, T/C [30]: 116% | viability, T/C [31]: 81.8% | viability, T/C [32]: 68.6% | viability, T/C [33]: 101% | viability, T/C [34]: 102% | viability, T/C [35]: 109% | viability, T/C [36]: 116%

Structure (SMILES): CCc1c2c(nc3ccc(O)cc13)-c1cc3c(c(=O)n1C2)COC(=O)[C@]3(O)CC + Cc1[nH]c2ccc(F)cc2c1-c1nc2c3cccnc3c3ncccc3c2[nH]1
IC50 (second compound 0.0316 µM): 1.44 nM | IC50 (second compound 0.1 µM): 1.57 nM | IC50 (second compound 0.316 µM): 1.52 nM | IC50 (second compound 1 µM): 1.48 nM | IC50 (second compound 3.16 µM): 1.81 nM | IC50 (second compound 10 µM): 1.61 nM | viability, T/C (second compound 0.0316 µM, first compound 0.000999 µM): 66.5% | viability, T/C (second compound 0.0316 µM, first compound 0.00316 µM): 14.4% | viability, T/C (second compound 0.0316 µM, first compound 0.00999 µM): 8.08% | viability, T/C [1]: 6.13% | viability, T/C (second compound 0.0316 µM, first compound 0.0999 µM): 5.29% | viability, T/C [3]: 2.46% | viability, T/C (second compound 0.1 µM, first compound 0.000999 µM): 73.5% | viability, T/C (second compound 0.1 µM, first compound 0.00316 µM): 13.8% | viability, T/C (second compound 0.1 µM, first compound 0.00999 µM): 8.38% | viability, T/C [7]: 6.85% | viability, T/C (second compound 0.1 µM, first compound 0.0999 µM): 5.08% | viability, T/C [9]: 3.05% | viability, T/C (second compound 0.316 µM, first compound 0.000999 µM): 70.8% | viability, T/C (second compound 0.316 µM, first compound 0.00316 µM): 13.3% | viability, T/C (second compound 0.316 µM, first compound 0.00999 µM): 7.87% | viability, T/C [13]: 5.41% | viability, T/C (second compound 0.316 µM, first compound 0.0999 µM): 5.92% | viability, T/C [15]: 2.25% | viability, T/C (second compound 1 µM, first compound 0.000999 µM): 69.9% | viability, T/C (second compound 1 µM, first compound 0.00316 µM): 11.7% | viability, T/C (second compound 1 µM, first compound 0.00999 µM): 7.26% | viability, T/C [19]: 5.78% | viability, T/C (second compound 1 µM, first compound 0.0999 µM): 5.91% | viability, T/C [21]: 1.75% | viability, T/C (second compound 3.16 µM, first compound 0.000999 µM): 83.5% | viability, T/C (second compound 3.16 µM, first compound 0.00316 µM): 18.2% | viability, T/C (second compound 3.16 µM, first compound 0.00999 µM): 8.66% | viability, T/C [25]: 7.44% | viability, T/C (second compound 3.16 µM, first compound 0.0999 µM): 3.96% | viability, T/C [27]: 2.23% | viability, T/C (second compound 10 µM, first compound 0.000999 µM): 72.8% | viability, T/C (second compound 10 µM, first compound 0.00316 µM): 16.9% | viability, T/C (second compound 10 µM, first compound 0.00999 µM): 11.9% | viability, T/C [31]: 8.45% | viability, T/C (second compound 10 µM, first compound 0.0999 µM): 5.37% | viability, T/C [33]: 2.72%

IC50 (second compound 0.0316 µM): 292 nM | IC50 (second compound 0.1 µM): 225 nM | IC50 (second compound 0.316 µM): < 31.6 nM | IC50 (second compound 1 µM): < 31.6 nM | IC50 (second compound 3.16 µM): < 31.6 nM | IC50 (second compound 10 µM): < 31.6 nM
Structure (SMILES): COc1ccc([C@@H](O)c2cc(-c3ncnc4cc(N5CCOCC5)ccc34)c(F)cc2Cl)nn1 + Cc1cnc(CNC(=O)c2c(=O)c3ccc(N4CCCN(C)CC4)nc3n3c2sc2ccccc23)cn1
viability, T/C [1]: 79.2% | viability, T/C [2]: 62.5% | viability, T/C [3]: 53.6% | viability, T/C [4]: 30.4% | viability, T/C [5]: 24.8% | viability, T/C [6]: 25.6% | viability, T/C [7]: 65.2% | viability, T/C [8]: 56.8% | viability, T/C [9]: 49.1% | viability, T/C [10]: 31.7% | viability, T/C [11]: 30.7% | viability, T/C [12]: 20.9% | viability, T/C [13]: 37.4% | viability, T/C [14]: 35.3% | viability, T/C [15]: 37% | viability, T/C [16]: 24.5% | viability, T/C [17]: 24.9% | viability, T/C [18]: 18.3% | viability, T/C [19]: 21.7% | viability, T/C [20]: 20.7% | viability, T/C [21]: 18.4% | viability, T/C [22]: 18.2% | viability, T/C [23]: 18.8% | viability, T/C [24]: 18.1% | viability, T/C [25]: 19.5% | viability, T/C [26]: 20.4% | viability, T/C [27]: 18.3% | viability, T/C [28]: 16.9% | viability, T/C [29]: 15.2% | viability, T/C [30]: 12% | viability, T/C [31]: 18.8% | viability, T/C [32]: 18.6% | viability, T/C [33]: 18.3% | viability, T/C [34]: 16.8% | viability, T/C [35]: 14.5% | viability, T/C [36]: 11.6%
